Laboratory results: patent US20190134120A1, “METHODS FOR THE TREATMENT OF BLADDER CANCER” (Viralytics Limited, priority 2013, published 2019)

Assays:
Type in all cases: cell-based, Human
KU19-19 cells = test: CVA21 cytotoxicity, KU19-19 cells; details: FIG. 2b
[1] = test system: bladder cancer cell lines; test: Combination of CVA21 and chemotherapy on cell proliferation, combination index (CalcuSyn); details: for combination index values: fixed ratio design
Description: FIG. 2 c): The effect of the combination of CVA21 and chemotherapy on cell proliferation was assessed by calculating combination index (CI) values using CalcuSyn software (Biosoft).
Combining CVA21 with the chemotherapy agents Mitomycin C and Gemcitabine has shown surprising synergy. […] Preliminary data using the same method has found from the 50% to the 75% effect levels, combination index values of 0.69-0.83 with Gemcitabine (FIG. 2b). In brief, 5637/T24/TCCSUP-1 cells were plated at 1×10^4 cells per well (100 μL) of a 96 well tray and incubated at 37° C. for 24 hrs. Mitomycin C was diluted in 10% FCS medium in doubling dilutions from between 2.8 to 0.02 ug/ml for 5637 cells and between 3.36 to 0.03 ug/ml for T24 cells. CVA21 was then diluted between MOI 25-0.196 in doubling dilutions using each dilution of Mitomycin C. The cells were then treated with each dilution of CVA21/Mitomycin C and incubated for 72 hrs. The medium was removed and 100 μl of diluted MTS reagent (Promega) was added. The plates were then incubated for 1-4 hrs and absorbance read at 492 nm.

T24 cells = test: Synergy between CVA21 and radiotherapy, T24 cells
Description: Combining CVA21 with the radiotherapy has shown exceptional synergy. When 5637 cells were irradiated (4-10 Gy) then 24 hours later exposed to CVA21 (multiplicities of infection 0.961-12.6), clear synergy was seen (FIG. 3a). […] A comprehensive experimental and analytic method was implemented for this work which allows calculation of combination index values at all data points, and therefore identification of areas of high synergy across the whole response surface (Greco et al. 1995) (FIGS. 3b, 3c).
In brief, T24/5637 cells were plated at 0.25×10^4/0.5×10^4 cells per well (100 μL) of a 96 well tray and incubated at 37° C. for 24 hrs. Day 2—An extra 100 ul 10% FCS, media was added to the cells. Then they were treated with Rad (Gy 0, 4, 6, 8, 10) on a clinical Varian linear accelerator in St Luke's Cancer Centre, Royal Surrey Hospital UK. Day 2—The plates were returned to the lab and incubated at 37° C. for 24 hrs. Day 3—The medium was removed and 100 ul of CVA21 (MOI 12.5-0.1 in 2% FCS medium) was added and incubated at 37° C. for 72 hrs. Day 6—The medium was removed and 100 μl of fresh 10% FCS medium added and incubated for 24 hrs. Day 7—The medium was removed and 100 μl of diluted MTS reagent (Promega) was added. The plates were then incubated for 1-2 hr and read absorbance at 492 nm. […]

[2] = test system: Patient derived bladder tumour cell line; test: Infection of patient derived primary bladder tumour cells with CVA21; details: varying MOIs; 72 hours; MTS
Description: Human cancer bladder tissue was disaggregated and primary tumour cells were isolated. These were tested for bladder tumour markers (Cytokeratin 7) (data not shown). Primary tumour cells were infected at varying MOIs and incubated at 37 C for 72 hours then photographed and analysed by MTS ([3-(4,5-dimethylthiazol-2-yl)-5-(3-carboxymethoxyphenyl)-2-(4-sulfophenyl)-2H-tetrazolium, inner salt) assay. (A) CVA21 MOI 3. (B) Uninfected cells. (C) MTS assay. (D) CVA21 (3×10^6 TCID50) was incubated at 37 C for one hour in healthy donor urine. Resulting virus was titrated by TCID50 on SK-MEL-28 cells for 5 days.

Coxsackievirus A21 [CVA21]
susceptibility of cell line to CVA21 (KU19-19 cells): resistant | synergy with sequential dosing ([1]; CVA21 administered 4 hours after MMC, compared with concomitant dosing): synergy is well maintained | combination index values ([1]; CVA21 with Gemcitabine, from the 50% to the 75% effect levels, preliminary data): 0.69-0.83 | combination index values ([1]; CVA21 with Mitomycin C, from the 50% to the 90% effect levels): 0.40-0.55 | interaction of CVA21 with radiation (T24 cells): Synergy between radiation and CVA21 was confirmed | infectability of primary tumour cells [2]: highly infectable
